In patent publication US10806726B2, “Methods of using indazole-3-carb oxamides and their use as Wnt/B-catenin signaling pathway inhibitors” (Samumed, LLC, priority 2016, dated 2020):

Tests used:
[1] = test system: primary human mesenchymal stem cells (hMSCs); experiment: Tenocyte differentiation screening in hMSCs (SCXA-positive cells, 4 days); assay type: cell-based; conditions: 96 h, fold change over DMSO
Text: Representative compounds were screened using primary human mesenchymal stem cells (hMSCs) to determine their ability to induce tenocyte differentiation (process by which tendon is developed).
Primary human mesenchymal stem cells (hMSCs) were purchased from Lonza (Walkersville, Md.) and expanded in Mesenchymal Stem Cell Growth Media (Lonza). Cells between passage 3 and 6 were used for the experiments.
Cells were fixed using 4% formaldehyde (Electron Microscopy Sciences), and stained with anti-Sclerasis (anti-SCXA) antibodies (Abgent, San Diego, Calif.) [Webb S., et. al., Retinoic acid receptor signaling preserves tendon stem cell characteristics and prevents spontaneous differentiation in vitro, Stem Cell Research & Therapy 2016, 7:45] overnight at 4° C. […] Number of cells positive for SCXA in each well was quantified using the Celllnsight CX5. Data was normalized to the average of 12 DMSO treated wells on the same plate using Dotmatics Studies module. The normalized averages (fold change over DMSO) of 3 replicate wells for each compound concentration were calculated. Due to solubility limitations of some of the compounds, values for higher doses were manually corrected and curve fitting and EC50 determinations were performed using Dotmatics Studies.
EC50 for each compound is reported.

[2] = test system: Wnt-responsive promoter driving firefly luciferase in SW480 cells; experiment: Wnt reporter (SP5 promoter-luciferase) screening assay in SW480 cells; assay type: cell-based; conditions: Homo sapiens, 24-40 h, top concentration ten micromolar
Text: Another screening assay for Wnt activity is described as follows. Reporter cell lines can be generated by stably transducing cells of cancer cell lines (e.g., colon cancer) with a lentiviral construct that include a Wnt-responsive promoter driving expression of the firefly luciferase gene.
Lentiviral constructs can be made in which the SP5 promoter, a promoter having eight TCF/LEF binding sites derived from the SP5 promoter, is linked upstream of the firefly luciferase gene. The lentiviral constructs can also include a hygromycin resistance gene as a selectable marker. The SP5 promoter construct can be used to transduce SW480 cells, a colon cancer cell line having a mutated APC gene that generates a truncated APC protein, leading to de-regulated accumulation of β-catenin.
Cultured SW480 cells bearing a reporter construct can be distributed at approximately 10,000 cells per well into 96 well or 384 well plates. Compounds from a small molecule compound library can then be added to the wells in half-log dilutions using a ten micromolar top concentration. A series of control wells for each cell type receive only buffer and compound solvent. Twenty-four to forty hours after the addition of compound, reporter activity for luciferase can be assayed, for example, by addition of the BrightGlo luminescence reagent (Promega) and the Victor3 plate reader (Perkin Elmer). Readings can be normalized to DMSO only treated cells, and normalized activities can then be used in the EC50 calculations.

Row | EC50 [1] [µM] | EC50 [2] [µM] | Compound
1 | > 100 | 0.107 | O=C(Nc1ccc(Oc2cccc(F)c2)nc1)c1n[nH]c2ccc(-c3cccnc3)cc12 [compound 19, N-(6-(3-Fluorophenoxy)pyridin-3-yl)-5-(pyridin-3-yl)-1H-indazole-3-carboxamide]
2 | > 100 | ≥ 10 | N#Cc1cncc(-c2ccc3[nH]nc(C(=O)Nc4cccnc4)c3c2)c1 [compound 66, 5-(5-Cyanopyridin-3-yl)-N-(pyridin-3-yl)-1H-indazole-3-carboxamide]
3 | 5.09 | 15.4 | O=C(NC1CCOCC1)c1n[nH]c2ccc(-c3cncc(CN4CCCCC4)c3)cc12 [compound 163, 5-(5-(Piperidin-1-ylmethyl)pyridin-3-yl)-N-(tetrahydro-2H-pyran-4-yl)-1H-indazole-3-carboxamide]
4 | 8.12 | 0.067 | O=C(Nc1cccnc1)c1n[nH]c2ccc(-c3cncc(NC(=O)C4CC4)c3)cc12 [compound 41, 5-(5-(Cyclopropanecarboxamido)pyridin-3-yl)-N-(pyridin-3-yl)-1H-indazole-3-carboxamide]
5 | 5.54 | 0.048 | O=C(Nc1ccc(N2CCC2)nc1)c1n[nH]c2ccc(-c3cncc(CN4CCCCC4)c3)cc12 [compound 174, N-(6-(Azetidin-1-yl)pyridin-3-yl)-5-(5-(piperidin-1-ylmethyl)pyridin-3-yl)-1H-indazole-3-carboxamide]
6 | > 100 | ≥ 10 | O=C(Nc1cccnc1)c1n[nH]c2ccc(-c3cc(F)cc(CN4CCCCC4)c3)cc12 [compound 67, 5-(3-Fluoro-5-(piperidin-1-ylmethyl)phenyl)-N-(pyridin-3-yl)-1H-indazole-3-carboxamide]
7 | 10.8 | 0.041 | CN1CCN(c2ccc(NC(=O)c3n[nH]c4ccc(-c5cncc(CN6CCCCC6)c5)cc34)cn2)CC1 [compound 70, N-(6-(4-Methylpiperazin-1-yl)pyridin-3-yl)-5-(5-(piperidin-1-ylmethyl)pyridin-3-yl)-1H-indazole-3-carboxamide]
8 | > 100 | ≥ 10 | O=C(Nc1cnccc1C(F)(F)F)c1n[nH]c2ccc(-c3cccnc3)cc12 [compound 48, 5-(Pyridin-3-yl)-N-(4-(trifluoromethyl)pyridin-3-yl)-1H-indazole-3-carboxamide]
9 | 4.91 | 0.049 | O=C(Nc1ccc(N2CCC(O)CC2)nc1)c1n[nH]c2ccc(-c3cncc(CN4CCCCC4)c3)cc12 [compound 169, N-(6-(4-Hydroxypiperidin-1-yl)pyridin-3-yl)-5-(5-(piperidin-1-ylmethyl)pyridin-3-yl)-1H-indazole-3-carboxamide]
10 | 50.4 | 0.106 | O=C(Nc1ccnnc1)c1n[nH]c2ccc(-c3cccnc3)cc12 [compound 14, N-(Pyridazin-4-yl)-5-(pyridin-3-yl)-1H-indazole-3-carboxamide]
11 | 12.4 | 0.04 | O=C(Nc1ccnnc1)c1n[nH]c2ccc(-c3cncc(CN4CCCCC4)c3)cc12 [compound 75, 5-(5-(Piperidin-1-ylmethyl)pyridin-3-yl)-N-(pyridazin-4-yl)-1H-indazole-3-carboxamide]
12 | > 100 | ≥ 10 | O=C(Nc1cncc(-c2cccc(F)c2)c1)c1n[nH]c2ccc(-c3cccnc3)cc12 [compound 9, N-(5-(3-Fluorophenyl)pyridin-3-yl)-5-(pyridin-3-yl)-1H-indazole-3-carboxamide]
13 | > 100 | 0.158 | COc1ccc(-c2ccc3[nH]nc(C(=O)Nc4cccnc4)c3c2)cn1 [compound 54, 5-(6-Methoxypyridin-3-yl)-N-(pyridin-3-yl)-1H-indazole-3-carboxamide]
14 | > 100 | 0.057 | N#Cc1ccc(NC(=O)c2n[nH]c3ccc(-c4cncc(CN5CCCC5)c4)cc23)cn1 [compound 52, N-(6-Cyanopyridin-3-yl)-5-(5-(pyrrolidin-1-ylmethyl)pyridin-3-yl)-1H-indazole-3-carboxamide]
15 | > 100 | ≥ 10 | O=C(Nc1cnccc1C(F)(F)F)c1n[nH]c2ccc(-c3cncc(CN4CCCC4)c3)cc12 [compound 57, 5-(5-(Pyrrolidin-1-ylmethyl)pyridin-3-yl)-N-(4-(trifluoromethyl)pyridin-3-yl)-1H-indazole-3-carboxamide]
16 | 4.65 | 0.03 | Nc1ncc(NC(=O)c2n[nH]c3ccc(-c4cncc(CN5CCCCC5)c4)cc23)cn1 [compound 176, N-(2-Aminopyrimidin-5-yl)-5-(5-(piperidin-1-ylmethyl)pyridin-3-yl)-1H-indazole-3-carboxamide]
17 | 5.02 | 0.063 | O=C(Nc1cccnc1)c1n[nH]c2ccc(-c3cncc(CN4CCCC4)c3)cc12 [compound 43, N-(Pyridin-3-yl)-5-(5-(pyrrolidin-1-ylmethyl)pyridin-3-yl)-1H-indazole-3-carboxamide]
18 | 4.98 | 0.13 | O=C(Nc1ccc(CN2CCCC2)nc1)c1n[nH]c2ccc(-c3cccnc3)cc12 [compound 8, 5-(Pyridin-3-yl)-N-(6-(pyrrolidin-1-ylmethyl)pyridin-3-yl)-1H-indazole-3-carboxamide]
19 | > 100 | 0.123 | O=C(Nc1ccc2c(c1)OCCO2)c1n[nH]c2ccc(-c3cncc(CN4CCCCC4)c3)cc12 [compound 79, N-(2,3-Dihydrobenzo[b][1,4]dioxin-6-yl)-5-(5-(piperidin-1-ylmethyl)pyridin-3-yl)-1H-indazole-3-carboxamide]
20 | > 100 | 1.12 | Cn1nc(NC(=O)c2n[nH]c3ccc(-c4cccnc4)cc23)cc1C(F)(F)F [compound 37, N-(1-Methyl-5-(trifluoromethyl)-1H-pyrazol-3-yl)-5-(pyridin-3-yl)-1H-indazole-3-carboxamide]
21 | > 100 | 0.297 | O=C(Nc1ccc(O)nc1)c1n[nH]c2ccc(-c3cncc(CN4CCCCC4)c3)cc12 [compound 178, N-(6-Hydroxypyridin-3-yl)-5-(5-(piperidin-1-ylmethyl)pyridin-3-yl)-1H-indazole-3-carboxamide]
22 | > 100 | ≥ 10 | CN1CCN(c2ncccc2NC(=O)c2n[nH]c3ccc(-c4cccnc4)cc23)CC1 [compound 11, N-(2-(4-Methylpiperazin-1-yl)pyridin-3-yl)-5-(pyridin-3-yl)-1H-indazole-3-carboxamide]
23 | 4.61 | 0.048 | O=C(Nc1ccc(C(F)(F)F)nc1)c1n[nH]c2ccc(-c3cncc(CN4CCOCC4)c3)cc12 [compound 68, 5-(5-(Morpholinomethyl)pyridin-3-yl)-N-(6-(trifluoromethyl)pyridin-3-yl)-1H-indazole-3-carboxamide]
24 | > 100 | 0.06 | Cc1cc(NC(=O)c2n[nH]c3ccc(-c4cncc(CN5CCCCC5)c4)cc23)cnc1N1CCCC1 [compound 172, N-(5-Methyl-6-(pyrrolidin-1-yl)pyridin-3-yl)-5-(5-(piperidin-1-ylmethyl)pyridin-3-yl)-1H-indazole-3-carboxamide]
25 | > 100 | ≥ 10 | O=C(Nc1cccc(-c2cccc(F)c2)c1)c1n[nH]c2ccc(-c3cccnc3)cc12 [compound 5, N-(3′-Fluorobiphenyl-3-yl)-5-(pyridin-3-yl)-1H-indazole-3-carboxamide]
26 | 5.17 | 0.183 | O=C(Nc1ccc(N2CCNCC2)nc1)c1n[nH]c2ccc(-c3cncc(CN4CCCCC4)c3)cc12 [compound 177, N-(6-(Piperazin-1-yl)pyridin-3-yl)-5-(5-(piperidin-1-ylmethyl)pyridin-3-yl)-1H-indazole-3-carboxamide]
27 | 12.3 | 0.239 | CN1CCN(Cc2cncc(-c3ccc4[nH]nc(C(=O)Nc5cccnc5)c4c3)c2)CC1 [compound 61, 5-(5-((4-Methylpiperazin-1-yl)methyl)pyridin-3-yl)-N-(pyridin-3-yl)-1H-indazole-3-carboxamide]
28 | 35.8 | ≥ 10 | O=C(Nc1cccnc1)c1n[nH]c2ccc(-c3cncc(C(F)(F)F)c3)cc12 [compound 16, N-(pyridin-3-yl)-5-(5-(trifluoromethyl)pyridin-yl)-1H-indazole-3-carboxamide]
29 | 2.67 | 0.85 | O=C(NCc1cccnc1)c1n[nH]c2ccc(-c3cncc(CN4CCCCC4)c3)cc12 [compound 76, 5-(5-(Piperidin-1-ylmethyl)pyridin-3-yl)-N-(pyridin-3-ylmethyl)-1H-indazole-3-carboxamide]
